Three molecules from PMC12610274, “Identification of Marrubiin as a Cathepsin C Inhibitor for Treating Rheumatoid Arthritis” (Molecules, 2025) can be followed below.

Data set [1] deals with T1, intracellular CTSC (Homo sapiens, UniProt P53634).
T1 construct: endogenous in cells; host or cells: U937
In words: CTSC cell-based assay using the U937 cell line. The settings on record: read-out: Cell-Based Enz (IC50: nM). Here is the method:
Cell-based CTSC enzymatic activity assays were performed in 96-well clear-bottom black microplates. […] The detection substrate, H-Gly-Arg-AFC, was diluted to 100 µM in serum-free medium and stored for later use. U937 cells in the logarithmic growth phase were harvested, washed with PBS, and counted. A single-cell suspension was prepared at a density of 1.0 × 10^6 cells/mL using serum-free medium. 30 µL of cell suspension was seeded into each well of the 96-well plate. To the test wells, 10 µL of the compound working solution was added, while 10 µL of serum-free medium was added to the control wells. The plate was pre-incubated in a cell culture incubator at 37 °C for 3 h. Subsequently, 10 µL of H-Gly-Arg-AFC was added to initiate the enzymatic reaction, and the plate was further incubated at 37 °C for 1 h. Fluorescence measurements were performed using a multimode microplate reader at excitation/emission wavelengths of 400/505 nm. Each group of tests was independently repeated at least 3 times, and IC50 values were calculated using SPSS 10.0.

Data set [2] is described as follows: Cytotoxicity assay, U937 cell line. Format: cell-based. Particulars: human, U937 cells. Here is the method:
(§1) RAW264.7 cells and U937 cells in the logarithmic growth phase were counted and diluted, and the concentrations of the single-cell suspensions of the two types of cells were adjusted to 5 × 10^4 cells/mL and 3 × 10^4 cells/mL, respectively. After thorough mixing, the cells were seeded into a 96-well plate, with 100 μL of cell suspension added to each well. Prepare the working solution of test compounds using the corresponding medium as the solvent, with the concentration of working solution being 2 times the final test concentration (2.5 μM, 5 μM, 10 μM, 20 μM, and 40 μM). Twenty-four hours after cell seeding, the compound working solutions were added to the compound test wells, and the same volume of medium was added to the negative control wells, followed by continuous incubation for another 24 h. Only the wells with the same volume but without cells served as the blank control group. The CellTiter-Lumi™ luminescent cell viability assay kit (Beyotime Biotechnology, Shanghai, China, C0065XL) was used to detect cell viability according to the standard operating procedures. Each group of tests was independently repeated at least 3 times, and IC50 values were calculated using SPSS 10.0.

Data set [3] can be described thus: Cytotoxicity assay, RAW264.7 cell line. Particulars: mouse, RAW264.7 cells. It is filed as cell-based. Here is the method:
as §1

Data set [4] addresses CTSC (Homo sapiens, UniProt P53634). Put plainly: Human recombinant CTSC isolated enzyme assay. Further details: purchased R&D Systems. Particulars: for IC50: human recombinant CTSC, cell-free, 12-point dose-response, read-out: CTSC Enz (IC50: nM). It is filed as biochemical. Here is the method: Both recombinant CTSL and CTSC for in vitro cell-free-based enzymatic activity assay can be purchased from R&D Systems (Minneapolis, MN, USA), a biotechnology company. According to the standardized procedures and material ratios provided by R&D Systems, prepare the activation solution (25 mM MES + 5 mM DTT, pH 6.0) and the assay solution (25 mM MES + 50 mM NaCl + 5 mM DTT, pH 6.0) in advance for later use. Dilute the detection substrate H-Gly-Arg-AMC to a 200 µM solution with the assay solution for standby. Prepare the working solution of compounds to be tested using the assay solution, with the concentration of working solution being 10 times the final test concentration. Dilute CTSC and CTSL, respectively, with cold activation solution. Thoroughly mix the two activation solutions containing the proteins to achieve final concentrations of 300 nM for CTSL and 440 nM for CTSC. After co-incubation for 1 h, the activated CTSC treated with CTSL can be used for the enzymatic activity inhibition efficacy test of compounds. Dilute the activated CTSC to 4.4 nM with cold assay buffer. Incubate 4 μL of the activated CTSC with 1 μL of the compound working solution (test group) or 1 μL of blank assay solution (control group) at room temperature for 3 h. Then, add 5 μL of the detection substrate to achieve a final concentration of 100 μM. Mix 5 µL each of the assay solution and the substrate solution as the blank group. After 1 h, the absorbance of detection substrate was measured using a multifunctional microplate reader at excitation/emission wavelengths of 380 nm/460 nm. The inhibitory efficacy of molecules on enzyme activity was calculated based on the absorbance difference between test group and control group. […] Each group of tests mentioned above was independently repeated at least 3 times, and IC50 values were calculated using SPSS 10.0.

Chain of CTSC (P53634 25-134 limits assumed): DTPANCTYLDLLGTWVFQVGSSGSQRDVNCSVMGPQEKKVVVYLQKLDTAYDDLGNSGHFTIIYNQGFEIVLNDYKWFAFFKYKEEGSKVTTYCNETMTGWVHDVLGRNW
Chain of CTSC (P53634 231-394 limits assumed): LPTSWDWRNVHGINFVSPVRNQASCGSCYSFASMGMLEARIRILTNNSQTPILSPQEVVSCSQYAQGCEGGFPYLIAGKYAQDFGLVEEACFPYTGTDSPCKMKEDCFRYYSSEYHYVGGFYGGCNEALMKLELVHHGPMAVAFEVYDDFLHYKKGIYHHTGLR
Chain of CTSC (P53634 395-463 limits assumed): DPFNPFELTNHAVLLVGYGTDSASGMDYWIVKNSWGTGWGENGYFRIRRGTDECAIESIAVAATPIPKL
T1 sequence (P53634 25-463): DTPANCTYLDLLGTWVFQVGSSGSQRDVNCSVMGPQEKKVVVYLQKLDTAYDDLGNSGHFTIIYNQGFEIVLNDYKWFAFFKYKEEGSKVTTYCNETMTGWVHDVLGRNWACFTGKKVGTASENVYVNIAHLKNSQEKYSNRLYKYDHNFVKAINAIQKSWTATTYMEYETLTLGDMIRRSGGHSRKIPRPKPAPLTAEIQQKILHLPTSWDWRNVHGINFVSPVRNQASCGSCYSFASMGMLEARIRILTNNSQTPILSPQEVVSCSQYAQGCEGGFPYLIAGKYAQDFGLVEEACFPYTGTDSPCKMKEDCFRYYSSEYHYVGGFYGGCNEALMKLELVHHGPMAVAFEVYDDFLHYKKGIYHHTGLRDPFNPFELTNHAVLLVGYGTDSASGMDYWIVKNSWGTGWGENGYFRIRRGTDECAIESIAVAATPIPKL

On to `CC(=O)OCC1=CO[C@@H](OC(=O)CC(C)C)[C@H]2C1=C[C@H](OC(=O)CC(C)(C)OC(C)=O)[C@]21CO1` [Acevaltrate, acevaltrate], for which the IC50 in data set [1] is 702.1 ± 3.2 nM; in data set [4] it was 1053 ± 2.2 nM. For the same molecule, the 50% inhibitory concentration (IC50) at 24 h in data set [2] and in data set [3] was above 10 µM each time.

For `CN1C2CC(O)CC1C1OC12` (stereo not drawn) [Scopine, scopine], the IC50 in data set [1] worked out at 337 ± 1.8 nM; in data set [4], 135 ± 4.7 nM. For the same molecule, the IC50 at 24 h in data set [2] and in data set [3] was above 10 µM in each case.

As for `N[C@@H]1CON=C1O` [D-cycloserine], in data set [4] (result in words), the “enzymatic inhibitory activity against CTSC” value is reported as “no enzymatic inhibitory activity at all”.

By IC50 is commonly meant the point on the concentration scale where inhibition reaches its midpoint.
